The test system of this assay is Escherichia coli K12. The experiment in a line: Digital same-sample filtration AST at two antibiotic concentrations (Example 13). Conditions: for Both (number of wells) / Empty (number of wells) / Extracellular only (number of wells) / Intracellular only (number of wells): 19.0 to 21.2 minutes to centrifugation, 32 partitions, qPCR. It is filed as cell-based. As to the method:
A 96-well microtiter plate was prepared for the experiment by placing Mueller-Hinton Broth (MHB) growth media and one of three different concentrations of ertapenem (ETP) sodium salt into each well. 32 of the wells contained 0 μg/mL of ETP antibiotic and served as reference condition antibiotic exposures; pure water was added instead of ETP dissolved in pure water. Another 32 of the wells contained 0.417 μg/mL of ETP (for a final concentration of 0.25 μg/mL). The last 32 wells contained 3.33 μg/mL of ETP (for a final concentration of 2.0 μg/mL). The 64 wells containing some ertapenem constituted the treated condition antibiotic exposures.
The inoculum was small enough that no detectable difference in the sample's optical density at 600 mm (OD600) was detectable by a spectrophotometer with a sensitivity of 0.01 absorbance units. After an incubation at 37° C., the media became turbid with an OD600 of 0.334 absorbance units after 3.5 hours of incubation.
In this experiment, the number and volume of sample partitions was restricted, for logistical reasons, to 96 partitions 25 μL in volume, specifically the wells of a 96-well plate. A target loading density of 0.5 cells per partition was set. The contrived clinical sample was diluted by a factor of 9.97239*10^−7 via a three-step serial dilution to an estimated density of […].
To begin the AST protocol, the diluted contrived clinical specimen was physically partitioned into the 96 samples by transferring 10 μL of the specimen, in 96 separate transfers (actually 8 transfers with a multichannel pipette), to each well of the 96-well microtiter plate containing ETP and MHB. Then, the entire plate was sealed with a RNase/DNase-free plastic, adhesive sealing membrane and placed on a thermal block set to 37° C. and shaking at 700 rpm.
After 8 minutes of incubation at 37° C., the exposures were taken back to the lab bench. The entire volume of each antibiotic exposure was transferred to a Millipore® 96-well sterile polystyrene MultiScreenHTS® filter plate (Millipore-Sigma MSGVS2210). Each well of the filter plate contained a hydrophilic polyvinylidene fluoride (PVDF) filter membrane with a […]. A 96-well polypropylene microtiter plate was affixed to the bottom of the filter plate. The filter plate was promptly centrifuged at 2200 relative centrifugal force for 5.0 minutes to speed the passage of the antibiotic exposure sample through the filter and into 96-well microtiter plate. The collected fluid was called the “filtrate.” In total, between 19.0 and 21.2 minutes elapsed between the first addition of cells to the exposure volume and the start of the centrifugation. The total time elapsed differed slightly among wells because cells could not be manually added to all wells at the exact same time.
8 μL of each filtrate was transferred to new containers containing 6 μL of Lucigen DNA Extraction Buffer, vortexed, centrifuged briefly to collect liquid at the bottom of the tube, and then heated for 6 minutes at 65° C. and then 4 minutes at 98° C.
After the creation of the filtrates, 30 μL of fresh MHB media was added to all filters. […] The purpose of this new volume of MHB was to wash away residual extracellular nucleic acids that might be confused for intracellular nucleic acids when the lysate was collected. The 30 μL of fresh MHB was centrifuged for 5 minutes at 2200 rcf into a clean 96-well plate, then discarded.
Next, 20 μL of DNA Extraction Buffer was placed into all of the wells of the filter plate, on top of the filters. The filter plate was heated to 65° C. for 6 minutes, without shaking, on a ThermoMixer® flat surface heating block. Intracellular nucleic acids were released from lysed cells into the DNA Extraction Buffer fluid. Then, the filter plate was taped to a clean 96-well polypropylene microtiter plate and centrifuged at 2200 rcf for 5 minutes. The DEB fluid that flowed through the filter was collected in the microtiter plate below the filter plate. […]
On the technique in general: Quantitative PCR measures a nucleic acid by following its amplification.

This note sets out measurements from patent publication US20220282304A1, “SAME-SAMPLE ANTIBIOTIC SUSCEPTIBILITY TEST AND RELATED COMPOSITIONS, METHODS AND SYSTEMS” (CALIFORNIA INSTITUTE OF TECHNOLOGY, priority 2021, published 2022).

Take `C[C@@H](O)[C@H]1C(=O)N2C(C(=O)O)=C(S[C@@H]3CN[C@H](C(=O)Nc4cccc(C(=O)O)c4)C3)[C@H](C)[C@H]12` [ETP, ertapenem]: where the note is “2.0 μg/mL condition, more exposure time or more cells needed for a conclusive result”, the susceptibility interpretation entry is “more likely to be susceptible”. Further, the proportion of lysis (2.0 μg/mL condition, reference background 0/29) is recorded as 2/34. In addition, where the note is “Treated 0.25 μg ETP/mL”, the “Intact (most likely number of cells)” value is 26, the “Lysed (most likely number of cells)” value came to 0, the “Both (number of wells)” value was 0 and the “Empty (number of wells)” value turned out to be 15. Moreover, where the note is “Treated 0.25 μg ETP/mL”, the “Extracellular only (number of wells)” value is given as 0 and the “Intracellular only (number of wells)” value amounted to 17. For the setting “Treated 2.00 μg ETP/mL”, the “Intact (most likely number of cells)” value is 32, the “Lysed (most likely number of cells)” value was found to be 2, the “Both (number of wells)” value stood at 2 and the “Empty (number of wells)” value is on record as 10. Under “Treated 2.00 μg ETP/mL”, the “Extracellular only (number of wells)” value stood at 0 and the “Intracellular only (number of wells)” value came to 20.
